In ChEMBL document CHEMBL6071211, “Invention of VH-937, a Potent HIV-1 Maturation Inhibitor with the Potential for Infrequent Oral Dosing in Humans” (ACS Med Chem Lett, 2024):

Columns and labels:
[1] = system: Human immunodeficiency virus 1; experiment: In vitro antiviral activity against fully replicating pseudotype HIV1 harboring Gag T332S/[…]/prR41G mutant by single cycle assay; format: functional, organism-based
[2] = system: Human immunodeficiency virus 1; experiment: Ratio of EC50 for antiviral activity against fully replicating HIV1 harboring Gag V370A/deltaV371 by multicycle assay to EC50 for antiviral activity against fully replicating wild type HIV1 NLRepRluc-P373S by multicycle assay; format: functional
[3] = AUC (infinity) in Cynomolgus monkey at 2 mg/kg, iv; format: ADME, organism-based, Macaca fascicularis; details: in vivo
[4] = Metabolic stability in rat liver microsomes assessed as half life; format: ADME, Microsome
[5] = system: Human immunodeficiency virus 1; experiment: In vitro antiviral activity against fully replicating wild type HIV1 harboring NLRepRluc-P373S by multicycle assay; format: functional, organism-based
[6] = Elimination half life in Cynomolgus monkey at 2 mg/kg, iv; format: ADME, organism-based, Macaca fascicularis; details: in vivo, read-out: beta t1/2 (converted)
[7] = system: Human immunodeficiency virus 1; experiment: In vitro antiviral activity against fully replicating HIV1 harboring Gag A364V mutant assessed as maximum percent inhibition by multicycle assay relative to control; format: functional
[8] = system: Human immunodeficiency virus 1; experiment: In vitro antiviral activity against fully replicating HIV1 harboring Gag deltaV370 mutant by multicycle assay; format: functional, organism-based
[9] = AUC (infinity) in dog at 5 mg/kg, po; format: ADME, organism-based, Canis lupus familiaris; details: in vivo
[10] = Oral bioavailability in rat at 5 mg/kg; format: ADME, organism-based; details: in vivo
[11] = Oral bioavailability in dog at 5 mg/kg; format: ADME, organism-based, Canis lupus familiaris; details: in vivo
Cytochrome P450 2C8 = biological target: T1, Cytochrome P450 2C8 (Homo sapiens, UniProt P10632); experiment: Inhibition of CYP2C8 (unknown origin); format: ADME
T1 sequence (P10632 whole entry): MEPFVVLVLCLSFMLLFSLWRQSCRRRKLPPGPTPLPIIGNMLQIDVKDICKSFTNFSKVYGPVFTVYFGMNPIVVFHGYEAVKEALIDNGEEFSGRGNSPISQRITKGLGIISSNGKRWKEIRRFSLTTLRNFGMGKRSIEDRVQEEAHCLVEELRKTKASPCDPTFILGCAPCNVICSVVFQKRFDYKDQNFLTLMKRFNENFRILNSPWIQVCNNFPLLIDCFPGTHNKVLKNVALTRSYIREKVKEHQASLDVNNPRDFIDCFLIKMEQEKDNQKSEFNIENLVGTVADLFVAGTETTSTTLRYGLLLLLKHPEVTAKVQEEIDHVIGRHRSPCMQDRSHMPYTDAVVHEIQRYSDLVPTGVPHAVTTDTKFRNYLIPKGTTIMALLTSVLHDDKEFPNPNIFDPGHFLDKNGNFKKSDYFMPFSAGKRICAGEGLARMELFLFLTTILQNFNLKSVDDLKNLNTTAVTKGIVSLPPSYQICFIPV

[12] = system: Human immunodeficiency virus 1; experiment: In vitro antiviral activity against fully replicating pseudotype HIV1 harboring Gag V370A mutant by single cycle assay; format: functional, organism-based
[13] = Clearance in dog at 2 mg/kg, iv; format: ADME, organism-based, Canis lupus familiaris; details: in vivo
[14] = system: Human immunodeficiency virus 1; experiment: In vitro antiviral activity against fully replicating pseudotype HIV1 harboring Gag V370A mutant assessed as maximum percent inhibition by single cycle assay relative to control; format: functional
[15] = system: Human immunodeficiency virus 1; experiment: In vitro antiviral activity against HIV1 subtype D clinical isolate UG270; format: functional, organism-based; details: Human immunodeficiency virus 1, UG270
[16] = system: Human immunodeficiency virus 1; experiment: In vitro antiviral activity against fully replicating HIV1 harboring Gag deltaV370 mutant assessed as maximum percent inhibition by multicycle assay relative to control; format: functional
Cytochrome P450 2C9 = Cytochrome P450 2C9 (Homo sapiens, UniProt P11712); experiment: Inhibition of CYP2C9 (unknown origin); format: ADME
Sequence of Cytochrome P450 2C9 (P11712 whole entry): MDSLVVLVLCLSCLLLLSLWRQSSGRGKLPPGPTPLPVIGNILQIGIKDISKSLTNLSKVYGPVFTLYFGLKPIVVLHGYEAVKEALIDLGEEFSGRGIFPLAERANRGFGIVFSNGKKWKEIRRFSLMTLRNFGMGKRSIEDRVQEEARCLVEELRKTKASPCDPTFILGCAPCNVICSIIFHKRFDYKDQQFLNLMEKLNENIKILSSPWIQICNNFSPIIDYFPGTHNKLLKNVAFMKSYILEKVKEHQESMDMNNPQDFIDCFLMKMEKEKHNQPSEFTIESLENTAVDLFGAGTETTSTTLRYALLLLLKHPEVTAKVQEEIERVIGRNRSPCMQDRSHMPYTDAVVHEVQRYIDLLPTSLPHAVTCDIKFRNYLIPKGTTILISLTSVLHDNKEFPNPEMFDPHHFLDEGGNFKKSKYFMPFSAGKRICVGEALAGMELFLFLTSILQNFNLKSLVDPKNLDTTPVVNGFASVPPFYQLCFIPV

[17] = system: Human immunodeficiency virus 1; experiment: In vitro antiviral activity against fully replicating pseudotype HIV1 harboring Gag deltaV370 mutant assessed as maximum percent inhibition by single cycle assay relative to control; format: functional
[18] = system: Human immunodeficiency virus 1; experiment: In vitro antiviral activity against fully replicating pseudotype HIV1 harboring Gag deltaV370 mutant by single cycle assay; format: functional, organism-based
Cytochrome P450 2D6 = Cytochrome P450 2D6 (Homo sapiens, UniProt P10635); experiment: Inhibition of CYP2D6 (unknown origin); format: ADME
Sequence of Cytochrome P450 2D6 (P10635 whole entry): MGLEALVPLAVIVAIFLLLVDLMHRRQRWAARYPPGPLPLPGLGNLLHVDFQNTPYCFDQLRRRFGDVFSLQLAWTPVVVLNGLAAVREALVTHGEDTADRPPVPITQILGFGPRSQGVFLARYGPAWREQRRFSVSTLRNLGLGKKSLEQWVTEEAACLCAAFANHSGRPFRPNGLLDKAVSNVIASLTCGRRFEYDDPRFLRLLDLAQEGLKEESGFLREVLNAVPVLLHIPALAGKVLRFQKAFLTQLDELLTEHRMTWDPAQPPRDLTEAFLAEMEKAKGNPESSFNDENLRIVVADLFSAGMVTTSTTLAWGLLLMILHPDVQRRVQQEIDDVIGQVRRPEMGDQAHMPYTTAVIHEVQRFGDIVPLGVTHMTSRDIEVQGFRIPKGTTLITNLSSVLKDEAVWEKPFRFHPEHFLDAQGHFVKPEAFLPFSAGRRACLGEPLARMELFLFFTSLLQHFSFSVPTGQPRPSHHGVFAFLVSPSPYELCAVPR

[19] = system: Human immunodeficiency virus 1; experiment: In vitro antiviral activity against fully replicating HIV1 NL4-3 harboring Gag T332S/V362I/prR41G mutant; format: functional, organism-based; details: Human immunodeficiency virus 1, NL4-3
[20] = system: Human immunodeficiency virus 1; experiment: Ratio of EC50 for antiviral activity against fully replicating HIV1 harboring Gag deltaV370 mutant by multicycle assay to EC50 for antiviral activity against fully replicating wild type HIV1 NLRepRluc-P373S by multicycle assay; format: functional
[21] = system: Human immunodeficiency virus 1; experiment: In vitro antiviral activity against fully replicating HIV1 harboring Gag […]/V370A mutant by multicycle assay; format: functional, organism-based
[22] = system: Human immunodeficiency virus 1; experiment: Binding affinity to HIV1 Gag A364V mutant assessed as dissociation half life by virus-like particle (VLP) assay
[23] = Elimination half life in dog at 2 mg/kg, iv; format: ADME, organism-based, Canis lupus familiaris; details: in vivo, read-out: beta t1/2 (converted)
[24] = system: Human immunodeficiency virus 1; experiment: In vitro antiviral activity against HIV1 subtype A clinical isolate I-2496; format: functional, organism-based; details: Human immunodeficiency virus 1, I-2496
[25] = system: Human immunodeficiency virus 1; experiment: Ratio of EC50 for antiviral activity against fully replicating HIV1 harboring to Gag T332S/[…]/prR41G mutant by multicycle assay to EC50 for antiviral activity against fully replicating wild type HIV1 NLRepRluc-P373S by multicycle assay; format: functional
[26] = system: Human immunodeficiency virus 1; experiment: In vitro antiviral activity against fully replicating pseudotype HIV1 harboring Gag A364V mutant assessed as maximum percent inhibition by single cycle assay relative to control; format: functional
[27] = system: Human immunodeficiency virus 1; experiment: In vitro antiviral activity against fully replicating wild type HIV1 NL4-3 in presence of human serum; format: functional, organism-based; details: Human immunodeficiency virus 1, NL4-3
Cytochrome P450 2B6 = biological target: T2, Cytochrome P450 2B6 (Homo sapiens, UniProt P20813); experiment: Inhibition of CYP2B6 (unknown origin); format: ADME
T2 sequence (P20813 whole entry): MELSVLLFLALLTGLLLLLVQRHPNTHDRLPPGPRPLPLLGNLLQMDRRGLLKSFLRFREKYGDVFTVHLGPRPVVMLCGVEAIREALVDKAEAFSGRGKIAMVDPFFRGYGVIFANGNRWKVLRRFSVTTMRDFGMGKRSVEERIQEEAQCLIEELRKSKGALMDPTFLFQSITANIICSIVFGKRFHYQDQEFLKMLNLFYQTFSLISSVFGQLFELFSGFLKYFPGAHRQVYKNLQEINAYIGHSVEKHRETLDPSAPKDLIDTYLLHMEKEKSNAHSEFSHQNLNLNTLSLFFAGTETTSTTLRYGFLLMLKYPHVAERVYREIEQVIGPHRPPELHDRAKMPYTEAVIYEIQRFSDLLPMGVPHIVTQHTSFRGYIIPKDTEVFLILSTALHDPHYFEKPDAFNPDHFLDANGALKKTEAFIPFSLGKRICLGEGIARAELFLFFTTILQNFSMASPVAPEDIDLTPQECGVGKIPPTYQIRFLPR

[28] = Elimination half life in dog at 5 mg/kg, po; format: ADME, organism-based, Canis lupus familiaris; details: in vivo, read-out: beta t1/2 (converted)
[29] = system: Human immunodeficiency virus 1; experiment: In vitro antiviral activity against fully replicating pseudotype HIV1 harboring Gag V3621/V370A mutant by single cycle assay; format: functional, organism-based
[30] = Metabolic stability in Cynomolgus monkey liver microsomes assessed as half life; format: ADME, Macaca fascicularis, Microsome
[31] = Lipophilicity, logD of compound; format: physicochemical; details: octanol/water
[32] = system: Human immunodeficiency virus 1; experiment: In vitro antiviral activity against fully replicating pseudotype HIV1 harboring Gag V3621/V370A mutant assessed as maximum percent inhibition by single cycle assay relative to control; format: functional

For `C=C(C)[C@@H]1CC[C@]2(NCCN3CCS(=O)(=O)CC3)CC[C@]3(C)[C@H](CC[C@@H]4[C@@]5(C)CC=C(C6=CC[C@](COc7ncccc7C#N)(C(=O)O)CC6)C(C)(C)[C@@H]5CC[C@]43C)[C@@H]12`, the EC50 [1] was 24 nM, the “Ratio EC50” value [2] was 2.5 and the AUC(0-inf) [3] was 65.5 µM·h. The half-life [4] was over 2 h, the EC50 [5] was 2 nM and the half-life [6] was 12.3 h. It also gave an Imax [7] of 95.2%, an EC50 [8] of 4 nM and an AUC(0-inf) [9] of 120 µM·h. It also gave a bioavailability [10] of 45.1%, a bioavailability [11] of 59% and an IC50 (Cytochrome P450 2C8) of over 4400 nM. It also gave an EC50 [12] of 6 nM, a clearance [13] of 0.21 mL/min/kg and an Imax [14] of 99%. The EC50 [15] was 2 nM, the Imax [16] was 97.6% and the IC50 (Cytochrome P450 2C9) was over 4400 nM. The Imax [17] was 100%, the EC50 [18] was 12 nM and the IC50 (Cytochrome P450 2D6) was over 4400 nM. For the same compound, the EC50 [19] was 8 nM, the “Ratio EC50” value [20] was 2 and the EC50 [21] was 2 nM. It also gave a T1/2 [22] of 0.483 h, a half-life [23] of 26.9 h and an EC50 [24] of 3 nM. The “Ratio EC50” value [25] was 4, the Imax [26] was 57% and the EC50 [27] was 26 nM. The IC50 (Cytochrome P450 2B6) was over 4400 nM, the half-life [28] was 26.9 h and the EC50 [29] was 11 nM. The half-life [30] was 0.2 h, the logD [31] was 4.74 and the Imax [32] was 98%.
